Source: patent publication US20100099630A1, “Method for improving ventilatory efficiency” (priority 2004, published 2010)

What was measured:
Format in all cases: in vivo, human
patients having CHF = assay: Ventilatory efficiency during cardiopulmonary exercise testing, CHF patients
Procedure: Ventilatory efficiency has been critically shown to be the most powerful, independent predictor of CHF patient survival. Ventilatory efficiency (VE) is determined by the linear, submax relationship between Minute Ventilation (V) and carbon dioxide output (VCO2), V being on the “y axis” and the linear slope being determined using the linear regression model, y=a+bx, “b” representing the slope. The steeper the slope, the worse the ventilation efficiency of the patient. As an exemplar cohort of patients with reduced ventilatory efficiency, patients suffering from CHF were recruited. Patients having CHF were selected according to the following criteria: • Male and female 48-84 years of age. • Ejection fraction 30-72% • NY Class III-IV (severe condition). • Test and control groups matched for pre-operative volume status, cardiac medication, measured risk assessment. The test group was administered D-ribose, 15 grams tid for eight weeks; the controls received 15 grams Dextrose tid. All patients in this group underwent repeated cardiopulmonary exercise using a four-minute sub-maximal step protocol. Patients were tested on a step apparatus. Others in the study were tested on a treadmill with varied grade or on drug-driven exercise simulation for those patients unable to use the other two devices. Symptom-limited peak exercise performance with at least 80-85% of age related maximal heart rate was attempted with each patient. Upper extremity blood pressure was obtained at every two minutes and also at peak exercise. Patients were tested on a treadmill with varying grade, on a step apparatus or with simulated drug-driven exercise simulation for those patients unable to exercise physically. VCO2 and VO2max before and after exercise was measured and VE calculated. The methodology is described in Circulation: www.circulationaha.org Ponikowski et al. Ventilation in Chronic Heart Failure, Feb. 20, 2001, the teachings of which are incorporated by reference. Ventilatory efficiency, VO2 and O2 pulse were assessed up to the anaerobic threshold at baseline and again at eight weeks. Weber function class was also determined based on VO2 at the anaerobic threshold (AT). The results for the first group of test patients (2 females and 13 males) are summarized in Table I. “R” designates D-ribose. Each patient acted as his or her control, that is, results after ribose administration were compared to baseline results. VO2 efficiency is the O2 uptake per unit time. O2 pulse is a measurement of the heart stroke volume.

[1] = tested on: patient at risk for COPD (No COPD); assay: Pulmonary function during moderate sub-maximum step exercise, patient without COPD; conditions: Patient 5, No COPD, post ribose
Procedure: Four patients presenting with chronic obstructive pulmonary disease were tested for various parameters of pulmonary function as described in Example 1. Baseline measurements of pulmonary function were taken during moderate, sub-maximum step exercise. Patients were instructed to self-administer five grams of ribose four times a day. After eight weeks, pulmonary function was again measured during moderate exercise.
In Table II, the units are: • VD=volume of the dead space; VT=tidal volume in liters per minute. The ratio VD/VT can be expressed as ml/ml. This ratio is taken at the nadir of sub-maximal exercise and is a measure of lung function. • VT=tidal volume in liters; RR=breaths per minute • VT=volume in ml at each inspiration, ti=inspiratory time. VT/ti is the inspiratory drive (effort) in ml/second. • VT=tidal volume in liters at constant body temperature pressure status. • VCO2=liters/minute of expired CO2 • RR=breaths per minute. VT/RR=tidal volume in liters per breath.
Table II illustrates that no one measurement or ratio is predictive of the clinical state of COPD and response to ribose administration. […] One goal of this study was to determine whether the progression of pulmonary dysfunction in such a patient could be slowed or halted over time.

[2] = tested on: representative patients (coronary artery disease / CHF cohort); assay: Exercise testing of representative individual patients (treadmill, step test, drug-driven simulated exercise)
Procedure: Patients were tested on a treadmill with varying grade, on a step apparatus or with simulated drug-driven exercise simulation for those patients unable to exercise physically. VCO2 and VO2max before and after exercise was measured and VE calculated. The methodology is described in Circulation: www.circulationaha.org Ponikowski et al. Ventilation in Chronic Heart Failure, Feb. 20, 2001, the teachings of which are incorporated by reference. Ventilatory efficiency, VO2 and O2 pulse were assessed up to the anaerobic threshold at baseline and again at eight weeks. Weber function class was also determined based on VO2 at the anaerobic threshold (AT). The results for the first group of test patients (2 females and 13 males) are summarized in Table I. “R” designates D-ribose. Each patient acted as his or her control, that is, results after ribose administration were compared to baseline results. VO2 efficiency is the O2 uptake per unit time. O2 pulse is a measurement of the heart stroke volume. A person, normal weight, was diagnosed with blockage of the coronary arteries with stable angina, not yet progressing to congestive heart failure. […] Using a treadmill, with incremental increase in grade, their VO2 max and VCO2 were determined. Following eight weeks of ribose administration of five grams four times a day, they were retested under the same conditions. Plotting a regression analysis of VO2 versus log V, the VE slope decreased from 60.2 to 45.5. It is considered that a slope of 36.9 or below indicates impairment of ventilatory efficiency. Therefore, while this patient was not in the normal range of ventilatory efficiency, improvement was marked. A second patient, a person of normal weight, self administered five grams of ribose four times a day for eight weeks. At the beginning of the study, their VE slope was 55.7 following nine minutes of submaximal exercise. At the end of the study, their VE slope had decreased to 45.2. This patient also was tested on the step test. The initial test was rated as “good” and the second test was subjectively considered to be “great.” A third patient, an obese person, was on nasal oxygen and was tested with drug-driven simulated exercise. […] Although their VE was now in the normal range, the test results, although improved were not subjectively rated as “good”.

[3] = tested on: patients presenting with chronic obstructive pulmonary disease; assay: Pulmonary function during moderate sub-maximum step exercise, COPD patients; conditions: for VD/VT: post ribose five grams four times a day; for VD/VT / VT/RR / VCO2 / VTBTPS (tidal volume) / VT/ti (inspiratory drive): eight weeks; for VT/RR / VCO2 / VTBTPS (tidal volume) / VT/ti (inspiratory drive): post ribose
Procedure: Four patients presenting with chronic obstructive pulmonary disease were tested for various parameters of pulmonary function as described in Example 1. Baseline measurements of pulmonary function were taken during moderate, sub-maximum step exercise. Patients were instructed to self-administer five grams of ribose four times a day. After eight weeks, pulmonary function was again measured during moderate exercise. In Table II, the units are: • VD=volume of the dead space; VT=tidal volume in liters per minute. The ratio VD/VT can be expressed as ml/ml. This ratio is taken at the nadir of sub-maximal exercise and is a measure of lung function. • VT=tidal volume in liters; RR=breaths per minute • VT=volume in ml at each inspiration, ti=inspiratory time. VT/ti is the inspiratory drive (effort) in ml/second. • VT=tidal volume in liters at constant body temperature pressure status. • VCO2=liters/minute of expired CO2 • RR=breaths per minute. VT/RR=tidal volume in liters per breath.

[4] = tested on: patient with rheumatoid lung; assay: Ventilatory efficiency in rheumatoid lung, case report; conditions: person, ribose approximately five grams two to three times a day, within a month
Source text: A person developed rheumatoid arthritis in the 1970's. By 1988, they began to show symptoms of rheumatoid lung, began the use of rescue inhalers such as Albuterol® inhaler and was hospitalized for respiratory distress three times in the next five years. At that point, they were prescribed Advair® steroid inhaler, which relieved their symptoms considerably, although they still required a rescue inhaler several times per week. In 2002, they began the administration of ribose, approximately five grams two to three times a day.

[5] = FIG. 2, single patient, after eight weeks of ribose supplementation, during exercise

Question: Which VO2 uptake efficiency (patients having CHF; Post-R: D-ribose 15 grams tid for eight weeks, 2 females and 13 males, Pre-R 1.00 +/− 0.28, p < 0.028) does the source give for `O=C[C@H](O)[C@H](O)[C@H](O)CO` [D-ribose] here?
Answer: 1.30 +/− 0.28

Question: And the O2 pulse (patients having CHF; Post-R: D-ribose 15 grams tid for eight weeks, 2 females and 13 males, Pre-R 7.45 +/− 1.8, p < 0.05)?
Answer: 9.04 +/− 1.9

Question: What about the Ventilatory efficiency (patients having CHF; Post-R: D-ribose 15 grams tid for eight weeks, 2 females and 13 males, up to anaerobic threshold, Pre-R 50.6 +/− 9.8, p < 0.01) of the same compound?
Answer: 41.6 +/− 6.4

Question: What about the “improvement of VE” value (patients having CHF; after eight weeks of D-ribose versus baseline) of the same compound?
Answer: about 20%

Question: What about the Weber functional class (patients having CHF; based on VO2 at the anaerobic threshold, several of the patients, after eight weeks) of the same compound?
Answer: reclassified into a higher, that is, less severe, Weber functional class

Question: And the VT/RR ([1]; baseline 0.090)?
Answer: 0.100 liters per breath

Question: And the VD/VT ([1]; baseline 0.212)?
Answer: 0.221 ml/ml

Question: And the VCO2 ([1]; baseline 0.990)?
Answer: 1.26 L/min

Question: And the “VTBTPS (tidal volume)” value ([1]; baseline 1.90)?
Answer: 2.40 L

Question: What about the “VT/ti (inspiratory drive)” value ([1]; baseline 1636) of the same compound?
Answer: 2232 mL/s

Question: What about the VE slope ([2]; obese person on nasal oxygen, drug-driven simulated exercise, ribose five grams four times daily, eight weeks, baseline 63.0) of the same compound?
Answer: 35.2

Question: And the “need for nasal oxygen” value ([2]; obese person, ribose five grams four times daily, eight weeks)?
Answer: able to discontinue the oxygen

Question: And the “time of simulated exercise” value ([2]; obese person, ribose five grams four times daily, eight weeks, baseline 7.43 minutes)?
Answer: 11.44 min

Question: What about the VE slope ([2]; person, coronary artery blockage with stable angina, treadmill, ribose five grams four times a day, eight weeks, baseline 60.2) of the same compound?
Answer: 45.5

Question: And the VE slope ([2]; person, nine minutes of submaximal exercise, ribose five grams four times a day, eight weeks, baseline 55.7)?
Answer: 45.2

Question: What about the “step test subjective rating” value ([2]; person, second test after eight weeks of ribose, initial test rated good) of the same compound?
Answer: great

Question: And the “slope of respiratory rate plotted against tidal volume” value ([3]; FIG. 1, single patient, after eight weeks of ribose supplementation)?
Answer: decreased slope

Question: What about the VE value [3, 5] of the same compound?
Answer: 42 L/min

Question: And the tidal volume [3, 5]?
Answer: 0.9 L

Question: What about the VD/VT ([3]; Patient 1 (asthmatic with COPD), nadir of sub-maximal exercise, baseline 0.304) of the same compound?
Answer: 0.253 ml/ml

Question: And the VT/RR ([3]; Patient 1, baseline 0.059)?
Answer: 0.065 liters per breath

Question: What about the VCO2 ([3]; Patient 1, baseline 1.038) of the same compound?
Answer: 1.050 L/min

Question: And the “VTBTPS (tidal volume)” value ([3]; Patient 1, baseline 1.54)?
Answer: 1.92 L

Question: What about the “VT/ti (inspiratory drive)” value ([3]; Patient 1, baseline 1492) of the same compound?
Answer: 1827 mL/s

Question: What about the VD/VT ([3]; Patient 2 (COPD), baseline 0.439) of the same compound?
Answer: 0.303 ml/ml

Question: What about the VT/RR ([3]; Patient 2, baseline 0.036) of the same compound?
Answer: 0056 liters per breath

Question: And the VCO2 ([3]; Patient 2, baseline 0.460)?
Answer: 0.460 L/min

Question: And the “VTBTPS (tidal volume)” value ([3]; Patient 2, baseline 0.830)?
Answer: 1.04 L

Question: What about the “VT/ti (inspiratory drive)” value ([3]; Patient 2, baseline 779) of the same compound?
Answer: 752 mL/s

Question: What about the VD/VT ([3]; Patient 3 (COPD), baseline 0.198) of the same compound?
Answer: 0.221 ml/ml

Question: And the VT/RR ([3]; Patient 3, baseline 0.041)?
Answer: 0.046 liters per breath

Question: And the VCO2 ([3]; Patient 3, baseline 0.280)?
Answer: 0.454 L/min

Question: And the “VTBTPS (tidal volume)” value ([3]; Patient 3, baseline 0.614)?
Answer: 0.873 L

Question: And the “VT/ti (inspiratory drive)” value ([3]; Patient 3, baseline 373)?
Answer: 706 mL/s

Question: And the VD/VT ([3]; Patient 4 (COPD), baseline 0.475)?
Answer: 0.280 ml/ml

Question: And the VT/RR ([3]; Patient 4, baseline 0.013)?
Answer: 0.018 liters per breath

Question: What about the VCO2 ([3]; Patient 4, baseline 0.310) of the same compound?
Answer: 0.814 L/min

Question: And the “VTBTPS (tidal volume)” value ([3]; Patient 4, baseline 0.550)?
Answer: 0.800 L

Question: What about the “VT/ti (inspiratory drive)” value ([3]; Patient 4, baseline 937) of the same compound?
Answer: 1590 mL/s

Question: And the “use of rescue inhaler and exercise tolerance” value [4]?
Answer: able to discontinue the use of the rescue inhaler and to exercise more without breathlessness symptoms
